Assay results as given in patent US20040224980A1, “Substituted 1H-quinolin-2-one compounds” (priority 2001, published 2004).

System: phenylquinone-induced writhing reactions
Experiment: phenylquinone-induced writhing in mice
Type: in vivo
Settings: male NMRI mice, 10 mg/kg i.v., phenylquinone i.p. 10 minutes after compound, writhing counted 5-20 minutes after phenylquinone
Protocol: The investigation into analgesic efficacy was performed by phenylquinone-induced writhing in mice (modified after: I. C. Hendershot, J. Forsaith, J. Pharmacol. Exp. There. 125, 237-240 (1959)). The corresponding literature description is hereby introduced as a reference and is deemed to be part of the disclosure.
Male NMRI mice weighing from 25 to 30 g were used for this purpose. Groups of 10 animals per substance dose received, 10 minutes after intravenous administration of the compounds tested, 0.3 ml/mouse of a 0.02% aqueous solution of phenylquinone (phenylbenzoquinone, Sigma, Deisenhofen; solution prepared with addition of 5% of ethanol and stored in a water bath at 45° C.) administered intraperitoneally. The animals were placed individually in observation cages. A push button counter was used to record the number of pain-induced stretching movements (writhing reactions=straightening of the torso with stretching of the rear extremities) for 5-20 minutes after phenylquinone administration. The control was provided by animals which received only physiological common salt solution.
The compounds were tested at the standard dosage of 10 mg/kg. Inhibition of the writhing reactions by a substance was calculated according to the following formula: [formula]
The in-depth investigation into analgesic efficacy was performed using phenylquinbne-induced writhing in mice, as described above.

COc1cccc(C2(O)CCC(NC(=O)Cc3c(OC)c4ccc(Cl)cc4[nH]c3=O)CC2CN(C)C)c1 (centres unmarked) [Example 2, 2′-(7-Chloro-4-methoxy-2-oxo-1,2-dihydroquinolin-3-yl)-N-[3″-(N,N-dimethylaminomethyl)-4″-hydroxy-4″-(m-methoxyphenyl)cyclohexyl]acetamide]
% inhibition of writhing reactions: 63%

COc1cccc(C2(O)CCC(NC(=O)Cc3c(O)c4ccc(Cl)cc4[nH]c3=O)CC2CN(C)C)c1 (centres unmarked) [Example 1, 2′-(7-Chloro-4-hydroxy-2-oxo-1,2-dihydroquinolin-3-yl)-N-[3″-(N,N-dimethylaminomethyl)-4″-hydroxy-4″-(m-methoxyphenyl)cyclohexyl]acetamide]
% inhibition of writhing reactions: 60%
